{
  "source": "patent US20250353891A1",
  "about": "(MEDIMMUNE LIMITED, priority 2022, published 2025)",
  "key": {"[1]": {"assay": "Mouse acute food intake study", "assay_type": "in vivo", "conditions": "male C57Bl/6 mice, s.c., cumulative food intake at 24 hr vs vehicle", "outline": "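Single-housed male C57Bl/6 mice (8-9 weeks on arrival), chow-fed, acclimated and sham-dosed ≥2 times, were fasted 6-8 h, then given vehicle or peptide subcutaneously at 5 mL/kg 1-2 h before lights out. Food intake was recorded automatically over 48 h and analysed as cumulative intake.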"}, "[2]": {"tested_on": "GLP-1R knockout (KO) mice", "assay": "Glucose change in GLP-1R knockout mice", "assay_type": "in vivo, mouse", "conditions": "GLP-1R KO mice, s.c., 120 min vs 0 min, somatostatin pretreatment (octreotide) 30 min prior to cpd", "outline": "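GLP-1R knockout mice (n=4-8/group, sorted by body weight) were fasted 2 h, and in some studies pretreated with octreotide 10 mg/kg 30 min before peptide injection. Mice were reused up to 3 times with at least 1-week wash-out.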"}, "wildtype (WT) mice": {"tested_on": "wildtype (WT) mice", "assay": "Glucose change in wildtype mice", "assay_type": "in vivo, mouse", "conditions": "s.c., 120 min vs 0 min, somatostatin pretreatment (octreotide) 30 min prior to cpd", "outline": "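Wildtype mice aged 8-14 weeks, fasted 2 h, sometimes pre-treated with octreotide 10 mg/kg 30 min before peptide injection. Blood glucose by glucometer at -30, 0, 30, 60, 120, 180, 240 and 360 min; n=4-8/group, mice reused up to 3 times with ≥1 week wash-out.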"}, "in vivo [3]": {"assay": "in vivo", "conditions": "male, C57BL/6, mouse, 10 nmol/kg"}, "in vivo [4]": {"assay": "in vivo", "conditions": "male, Beagle, dog, iv, 10 nmol/kg", "from_the_text": "(§1) Selected test peptides (n=8) were profiled for pharmacokinetic (PK) properties in the mouse after single intravenous (i.v.) or subcutaneous (s.c.) dose. A subset (n=4) meeting the acceptance criteria was subsequently profiled in the dog (single i.v. dose) and non-human primate (single i.v. and s.c. dose). […] Low-binding plasticware containers were used during preparation and sample handling to avoid non-specific binding.\nBlood of each sample was transferred into plastic micro centrifuge tubes containing EDTA-K2, inverted several times for proper mixing of contents and then placed on wet ice.\n(§2) Samples analysis: Samples were analyzed by LC-MS/MS. Calibration standards were injected at the beginning and end of each batch and the determined concentration for each prepared standard was used to construct a calibration curve. Plasma and dose aliquot sample concentrations were determined from the plasma calibration curve.\n(§3) Data analysis: Plasma concentration data was analyzed by non-compartmental analysis (NCA) using Phoenix Winnonlin v. 8.3.3.33. Linear trapezoidal rule was used for increasing values and log trapezoidal rule was used for decreasing values, applying uniform weighting for lambda_z calculations. Subcutaneous bioavailability was calculated as the ratio AUC(s.c.)0-inf/AUC(i.v.)0-inf. Reported values (Table 18) represent the mean of the individual estimates."}, "in vivo [5]": {"assay": "in vivo", "conditions": "male, cynomolgus monkey, 10 nmol/kg", "from_the_text": "as §1\nNon-human primate: PK was studied in non-naïve male cynomolgus monkeys. After dosing, PK samples were collected from the femoral vein. Blood of each sample was transferred into plastic micro centrifuge tubes containing EDTA-K2, inverted several times for proper mixing of contents and then placed on wet ice. The blood samples were centrifuged under refrigerated (2° C. to 8° C.) conditions within 30 minutes following sample collection to obtain plasma and stored at −60° C. to −90° C.° C. prior to analysis.\nas §2, §3"}, "[6]": {"molecular_target": "human GLP-1 receptor (hGLP-1R) (Homo sapiens, UniProt P43220)", "sequence (P43220 24-463)": "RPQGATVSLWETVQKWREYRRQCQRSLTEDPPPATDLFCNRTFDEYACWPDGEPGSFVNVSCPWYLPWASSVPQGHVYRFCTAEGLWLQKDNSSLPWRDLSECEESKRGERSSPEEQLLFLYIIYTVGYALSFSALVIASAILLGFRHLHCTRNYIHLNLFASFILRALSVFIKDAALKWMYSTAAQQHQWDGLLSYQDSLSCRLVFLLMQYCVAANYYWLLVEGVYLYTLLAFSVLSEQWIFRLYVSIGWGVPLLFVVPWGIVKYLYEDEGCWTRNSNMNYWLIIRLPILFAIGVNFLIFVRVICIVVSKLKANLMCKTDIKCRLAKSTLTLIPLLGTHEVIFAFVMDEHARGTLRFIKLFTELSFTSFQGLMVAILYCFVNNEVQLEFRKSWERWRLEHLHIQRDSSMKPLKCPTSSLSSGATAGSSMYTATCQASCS", "assay": "cAMP production (HTRF) in CHO cells expressing hGLP-1R", "assay_type": "cell-based", "parameters": "expressed in transfected cells", "outline": "(§4)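 Potency values represent EC50 from 4-parameter logistic curves of HTRF % Delta F signal. Receptor-expressing CHO cells (hGCGR 2×10^5 cells/mL, hGLP-1R 1×10^5 cells/mL) were exposed for 30 min at room temperature before two-step cAMP detection.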"}, "[7]": {"molecular_target": "human glucagon receptor (hGCGR) (Homo sapiens, UniProt P47871)", "sequence (P47871 26-477)": "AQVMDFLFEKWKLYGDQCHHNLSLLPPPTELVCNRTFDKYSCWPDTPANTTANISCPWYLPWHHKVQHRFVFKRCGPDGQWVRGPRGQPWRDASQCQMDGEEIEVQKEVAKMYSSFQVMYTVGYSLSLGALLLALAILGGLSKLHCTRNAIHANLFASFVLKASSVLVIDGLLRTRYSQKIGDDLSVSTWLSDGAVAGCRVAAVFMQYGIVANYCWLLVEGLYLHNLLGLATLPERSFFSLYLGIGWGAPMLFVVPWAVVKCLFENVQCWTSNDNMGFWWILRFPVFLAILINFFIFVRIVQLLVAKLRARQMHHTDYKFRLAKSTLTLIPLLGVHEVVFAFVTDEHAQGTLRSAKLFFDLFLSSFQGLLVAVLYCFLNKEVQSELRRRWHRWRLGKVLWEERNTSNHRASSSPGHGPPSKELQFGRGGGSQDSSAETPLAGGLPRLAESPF", "assay": "cAMP production (HTRF) in CHO cells expressing hGCGR", "assay_type": "cell-based", "parameters": "expressed in transfected cells", "conditions": "Table 7, peptides modified at position 20; cAMP in CHO hGCGR cells; geometric mean; read-out: hGluc-R EC50", "outline": "as §4"}, "[8]": {"assay": "Proteolytic resistance to FasSSGF containing porcine pancreatic pepsin", "assay_type": "in vitro ADME", "conditions": "pig, simulated gastric fluid, FasSSGF with pepsin, 37° C., read-out: % intact peptide over time (min)", "outline": "(§5)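 Peptide (250 μM stock in FasSSGF) mixed 1:1 with porcine pepsin stock (0.5 mg/mL in FasSSGF) and held at 37° C; samples at 0, 5, 10, 15 and 30 min quenched in ammonium bicarbonate, pH 8. Intact peptide remaining estimated by RP-HPLC peak area, UV 210 nm.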"}, "[9]": {"molecular_target": "T1, porcine pancreatic pepsin (Sus scrofa, UniProt P00791)", "T1 construct": "purchased Sigma P7012", "T1 sequence (P00791 60-385)": "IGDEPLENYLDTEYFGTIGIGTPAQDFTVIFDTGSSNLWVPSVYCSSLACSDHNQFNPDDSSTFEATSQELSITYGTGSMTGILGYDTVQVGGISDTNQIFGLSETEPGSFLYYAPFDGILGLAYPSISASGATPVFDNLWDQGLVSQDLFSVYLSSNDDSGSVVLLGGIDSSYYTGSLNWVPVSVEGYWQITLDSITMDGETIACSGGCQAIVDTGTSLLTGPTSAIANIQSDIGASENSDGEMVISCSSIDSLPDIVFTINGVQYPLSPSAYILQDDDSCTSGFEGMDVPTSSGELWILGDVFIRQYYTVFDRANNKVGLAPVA", "assay": "Proteolytic resistance to FasSSGF containing porcine pancreatic pepsin", "assay_type": "in vitro ADME", "conditions": "FasSSGF with pepsin, 37° C., 0 min", "outline": "as §5"}, "Pancreatin": {"tested_on": "Pancreatin", "assay": "Proteolytic resistance to FasSSIF/Pancreatin", "assay_type": "in vitro ADME", "conditions": "FasSSIF/Pancreatin, 37° C., 0 min", "outline": "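Peptide (1.0 mg) in pre-warmed FasSSIF, proteolysis started with fresh FasSSIF/USP Pancreatin and held at 37 °C. Aliquots at 0, 5, 10, 15, 30 min quenched in 10% TFA; remaining intact peptide estimated by RP-HPLC peak area, UV 210 nm.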"}},
  "note": "pEC50: −log10 of the molar value. Where “and” joins values, the source holds several entries; their conditions need not be identical. Equal values may be shown once. Starred links: 1 amine or outer side, 2 acyl side, 3 side chain; linkers in the order of their positions; H or OH if unused. Non-standard residues stand in square brackets, D forms with d. Residues, ends and D or L forms follow the SMILES beside them. Groups on a side chain read outwards from the residue. *: point of attachment. C18 diacid = O=C(O)CCCCCCCCCCCCCCCCC(=O)*; γGlu = O=C(O)[C@H](CCC(=O)[*:2])N[*:1]; αMeF = C[C@](N)(Cc1ccccc1)C(=O)O; AEEA = NCCOCCOCC(=O)O; Aib = CC(C)(N)C(=O)O",
  "data": [
    {"smiles": "CC[C@H](C)[C@H](NC(=O)C(C)(C)NC(=O)[C@H](CCC(N)=O)NC(=O)[C@@H](NC(=O)[C@](C)(Cc1ccccc1)NC(=O)[C@H](CC(=O)O)NC(=O)[C@H](CCCCNC(=O)COCCOCCNC(=O)COCCOCCNC(=O)CC[C@H](NC(=O)CCCCCCCCCCCCCCCCC(=O)O)C(=O)O)NC(=O)[C@H](C)NC(=O)[C@H](C)NC(=O)[C@H](CCCNC(=N)N)NC(=O)[C@H](CO)NC(=O)[C@H](CC(=O)O)NC(=O)[C@H](CC(C)C)NC(=O)[C@](C)(Cc1ccccc1)NC(=O)[C@H](CCCCN)NC(=O)[C@H](CO)NC(=O)[C@@H](NC(=O)[C@H](CC(=O)O)NC(=O)[C@H](CO)NC(=O)[C@@H](NC(=O)[C@](C)(Cc1ccccc1)NC(=O)[C@H](CO)NC(=O)CNC(=O)[C@H](Cc1c[nH]cn1)NC(=O)C(C)(C)NC(=O)[C@@H](N)Cc1c[nH]cn1)[C@@H](C)O)C(C)C)C(C)C)C(=O)N[C@@H](C)C(=O)N[C@@H](CC(N)=O)C(=O)N[C@H](C(N)=O)[C@@H](C)O", "note": "[Peptide 224, H-Aib-H-G-S-αMePhe-T-S-D-V—S-K-αMePhe-L-D-S-R-A-A-K (E-(O2Oc)-(O2Oc)-γE-C18diacid) 20-D-αMePhe-V-Q-Aib-I-A-N-T-amide] (H-H[Aib]HGS[αMeF]TSDVSK[αMeF]LDSRAAK([AEEA-AEEA-γGlu-C18 diacid])D[αMeF]VQ[Aib]IANT-NH2; N-terminus assumed)", "values": [
      {"measurement": "24 hr % Vehicle Food Intake", "setting": "[1]; dose 1 nmol/kg", "result": 91.3, "unit": "%"},
      {"measurement": "24 hr % Vehicle Food Intake", "setting": "[1]; dose 3 nmol/kg", "result": 76.6, "unit": "%"},
      {"measurement": "24 hr % Vehicle Food Intake", "setting": "[1]; dose 10 nmol/kg", "result": "66.5% and 72.5%"},
      {"measurement": "GLP-1R KO % glucose change 120 min", "setting": "[2]; 3 nmol/kg", "result": 100.3, "unit": "%"},
      {"measurement": "GLP-1R KO % glucose change 120 min", "setting": "[2]; 10 nmol/kg", "result": 132.3, "unit": "%"},
      {"measurement": "WT % glucose change 120 min", "setting": "wildtype (WT) mice; 3 nmol/kg", "result": "−46.3", "unit": "%"},
      {"measurement": "WT % glucose change 120 min", "setting": "wildtype (WT) mice; 10 nmol/kg", "result": "−40.0", "unit": "%"},
      {"measurement": "bioavailability", "setting": "in vivo [3]", "result": 109, "unit": "%"},
      {"measurement": "half-life", "setting": "in vivo [3]; iv", "result": 9.5, "unit": "h"},
      {"measurement": "half-life", "setting": "in vivo [4]", "result": 75, "unit": "h"},
      {"measurement": "bioavailability", "setting": "in vivo [5]", "result": 95, "unit": "%"},
      {"measurement": "half-life", "setting": "in vivo [5]; iv", "result": 100, "unit": "h"},
      {"measurement": "pEC50", "setting": "[6]; Table 7, peptides modified at position 20, cAMP in CHO hGLP-1R cells, geometric mean, read-out: hGLP-1R EC50", "result": 10.49},
      {"measurement": "% Relative Potency Ratio", "setting": "[6]; Table 7, % GLP-1R activity relative to GLP-1 / % GlucR activity relative to glucagon", "result": 1.8},
      {"measurement": "pEC50", "setting": "[7]", "result": 10.54}
    ]},
    {"smiles": "CC[C@H](C)[C@H](NC(=O)[C@H](Cc1ccccc1)NC(=O)[C@H](CCC(=O)O)NC(=O)[C@H](CCCCNC(=O)COCCOCCNC(=O)COCCOCCNC(=O)CC[C@H](NC(=O)CCCCCCCCCCCCCCCCC(=O)O)C(=O)O)NC(=O)[C@H](C)NC(=O)[C@H](C)NC(=O)[C@H](CCC(N)=O)NC(=O)CNC(=O)[C@H](CCC(=O)O)NC(=O)[C@H](CC(C)C)NC(=O)[C@H](Cc1ccc(O)cc1)NC(=O)[C@H](CO)NC(=O)[C@H](CO)NC(=O)[C@@H](NC(=O)[C@H](CC(=O)O)NC(=O)[C@H](CO)NC(=O)[C@@H](NC(=O)[C@H](Cc1ccccc1)NC(=O)[C@@H](NC(=O)CNC(=O)[C@H](CCC(=O)O)NC(=O)C(C)(C)NC(=O)[C@@H](N)Cc1cnc[nH]1)[C@@H](C)O)[C@@H](C)O)C(C)C)C(=O)N[C@@H](C)C(=O)N[C@@H](Cc1c[nH]c2ccccc12)C(=O)N[C@@H](CC(C)C)C(=O)N[C@H](C(=O)N[C@@H](CCCNC(=N)N)C(=O)NCC(=O)N[C@@H](CCCNC(=N)N)C(=O)NCC(=O)O)C(C)C", "note": "[semaglutide, reference compound]", "values": [
      {"measurement": "remaining at 5 min, 125 µM", "setting": "[8]; 5 min", "result": 15, "unit": "%"},
      {"measurement": "remaining at 10 min, 125 µM", "setting": "[8]; 10 min", "result": 13, "unit": "%"},
      {"measurement": "remaining at 0.25 h, 125 µM", "setting": "[8]; 15 min", "result": 12, "unit": "%"},
      {"measurement": "remaining at 0.5 h, 125 µM", "setting": "[8]; 30 min", "result": 14, "unit": "%"},
      {"measurement": "% intact peptide over time (min)", "setting": "[9]", "result": 100, "unit": "%"},
      {"measurement": "% intact peptide over time (min)", "setting": "Pancreatin", "result": 100, "unit": "%"}
    ]}
  ]
}
